Results reported in patent US20020019356A1, “HYPERBARIC OXIGENATION (HBO) AS THE METHOD FOR ENHANCEMENT EFFICIENCY OF ANTI-HIV SUBSTANCES IN INHIBITION THE HUMAN IMMUNODEFICIENCY VIRUS (HIV) REPRODUCTION AND REDUCTION OF THE CYTOTOXIC EFFECT OF THOSE SUBSTANCES AS WELL” (priority 1998, published 2002).

Legend:
[1] = test system: Supt1 cells; assay: Viability of Supt1 cells with different AZT concentrations, with or without HBO (MTT-test); assay type: cell-based, human
Excerpt: 4.) Monitoring the viability by means of direct cell calculation in a Goryaev counting chamber after colouring with the excepting vital stain 0.2% trypan blue. For the direct comparison of the amounts of living cells there is used the so-called MTT-method, which is based on the capability of living cells to reduce the yellow water-soluble tetrazole salt MTT (3-(4,5)-dimethylthiazol-2-ye)-2,5-diphenyl-bromide tetrazole) into insoluble intracellular MTT-formazan crystals, whereas dead cells are not capable to do this.
A concentrated MTT solution of 10 mg/ml is prepared with a phosphate buffer solution at pH 7.4 and brought into a hollow with the cells at a 10-fold dilution rate.
After incubation over 4 hours at 37° C. the supernatant is isolated with help of microdosing tips of a special design (S-tips).
Into the hollow is added […] of DMSO as solvent. The thereupon measurable optical density is within 540 to 590 nm, i.e. in the absorption range of formazan, is direct proportional to the quantity of living cells.
(§1) 18 million Supt1 cells in 60 ml of the growth medium RPMI-1640 with 10% fetal calf serum, 2 mM L-glutamine and […] genthamycin were placed in each of 2 plastic flasks (75 cm^3), mark Costar®, USA, one of which was subjected to HBO (Ox+), and the other was used for counterchecks with intact and infected cells without a HBO exposure (Ox−).
(§2) The HBO [6] was carried out in the oxygenous pressure chamber BLKS-303M. The pressure chamber was sealed, blown out with oxygen over 7 min till an oxygen concentration of 98-100% was obtained at the outlet of the pressure chamber, whereupon the oxygen pressure in said pressure chamber was increased up to 1.5 ate. The compression rate was 1,077 ate/min and the time period of isocompression was 40 min. After having finished the HBO process, the oxygen pressure was decreased to atmospheric during 6 min.
(§3) Over 40 min after a finish of the HBO—procedure in the each well of the 24-wells plate (Nuclon®, Denmark) added 45 μL of a cell suspension (3×10^5 cell/mL) and 50 μL of a growth substance with a different concentrations of AZT.
(§4) After an incubation over two hours with the virus-containing inoculum at 37° C., the cells were there-fold washed off from residual virus by centrifugation with 300 g over 10 min in the 30-fold volume of the medium and in every well of 24-wells plate were added […] of the growth medium with corresponding AZT-concentration.
The mixed samples were cultivated in a thermostat at 37° C., 5% CO2 and 80% moisture content. […]
The monitoring results of viability of oxygenated and not-oxygenated cells Supt1, inoculated HIV-1BRU with different AZT-concentrations, are shown in Table 1.

[2] = test system: HIV-1BRU; assay: Viral antigen content (polyclonal EIA) in supernatant of Supt1 culture infected with HIV-1BRU, with or without HBO; assay type: cell-based, Human Immunodeficiency Virus; design: unit not given here; settings: Supt1/HIV-1BRU
Protocol: 1.) Determination of the total level of viral antigen expression by means of the method of polyclonal immunoenzyme analysis (EIA) [ABBOTT™ ELISA Kit]. […]
as §1, §2, §3
(§5) After an incubation over 2 hours at 37° C. an oxygenated and non-oxygenated samples were infected with HIV-1BRU (non-resistant to AZT) and HIV-1A216 (resistant to AZT),
(§6) After having centrifuged 24-wells plate at 300 g over 10 min, supernatant was taken out the wells by S-tips (besides […] of a cell's sediment), to which was added […] of the virus-containing supernatant of 480 TCID50.
as §4
(§7) The mixed samples were cultivated in a thermostat at 37° C., 5% CO2 and 80% moisture content.
The experimental procedure was identically with that described in Example 1, except that there were monitored HIV-BRU antigen expression by the method of polyclonal EIA.

[3] = test system: HIV-1A216; assay: Viral antigen content (polyclonal EIA) in supernatant of Supt1 culture infected with AZT-resistant HIV-1A216, with or without HBO; assay type: cell-based, Human Immunodeficiency Virus; settings: Supt1/HIV-1A216
Protocol: 1.) Determination of the total level of viral antigen expression by means of the method of polyclonal immunoenzyme analysis (EIA) [ABBOTT™ ELISA Kit].
The values of 50 per cent effective AZT dose (ED50) were calculated conformably to oxidised and non-oxidised cells subsequently infected by HIV and treated by AZT in various concentrations.
ED50 values were derived according to the linear regression resulting averaged values of the optical density signal V(%) depending on the logarithm of AZT doses (10^−6; 10^−7; . . . 10^−12 M).[8]
Regression lines are determined with the following formula: […]
where <> and <> are regression coefficients, calculated by mean square root method.
as §1, §2, §3, §5, §6, §4, §7
The experimental procedure was identically with that described in Example 1, except that there were monitored HIV-1A216 antigen expression by the method of polyclonal EIA.

[4] = AZT 10^−11 M, day 3 after infection, OX+
[5] = AZT 10^−11 M, day 3 after infection, OX−

Cc1cn([C@H]2C[C@H](N=[N+]=[N-])[C@@H](CO)O2)c(=O)[nH]c1=O [AZT, 3-azido-2,3-didezoxythimidim]
viability of the cell culture Supt1 (MTT-test) ([1]; AZT 10^−3 M, day 2 after AZT addition, HBO+): 52.3 per cents | viability of the cell culture Supt1 (MTT-test) ([1]; AZT 10^−3 M, day 2 after AZT addition, HBO−): 45.3 per cents | viability of the cell culture Supt1 (MTT-test) ([1]; AZT 10^−3 M, day 3 after AZT addition, HBO+): 55.6 per cents | viability of the cell culture Supt1 (MTT-test) ([1]; AZT 10^−3 M, day 3 after AZT addition, HBO−): 51.1 per cents | viability of the cell culture Supt1 (MTT-test) ([1]; AZT 10^−3 M, day 5 after AZT addition, HBO+): 35.0 per cents | viability of the cell culture Supt1 (MTT-test) ([1]; AZT 10^−3 M, day 5 after AZT addition, HBO−): 25.3 per cents | viability of the cell culture Supt1 (MTT-test) ([1]; AZT 10^−4 M, day 2 after AZT addition, HBO+): 65.2 per cents | viability of the cell culture Supt1 (MTT-test) ([1]; AZT 10^−4 M, day 2 after AZT addition, HBO−): 63.1 per cents | viability of the cell culture Supt1 (MTT-test) ([1]; AZT 10^−4 M, day 3 after AZT addition, HBO+): 73.6 per cents | viability of the cell culture Supt1 (MTT-test) ([1]; AZT 10^−4 M, day 3 after AZT addition, HBO−): 50.5 per cents | viability of the cell culture Supt1 (MTT-test) ([1]; AZT 10^−4 M, day 5 after AZT addition, HBO+): 61.1 per cents | viability of the cell culture Supt1 (MTT-test) ([1]; AZT 10^−4 M, day 5 after AZT addition, HBO−): 55.1 per cents | viability of the cell culture Supt1 (MTT-test) ([1]; AZT 10^−5 M, day 2 after AZT addition, HBO+): 79.3 per cents | viability of the cell culture Supt1 (MTT-test) ([1]; AZT 10^−5 M, day 2 after AZT addition, HBO−): 72.3 per cents | viability of the cell culture Supt1 (MTT-test) ([1]; AZT 10^−5 M, day 3 after AZT addition, HBO+): 85.4 per cents | viability of the cell culture Supt1 (MTT-test) ([1]; AZT 10^−5 M, day 3 after AZT addition, HBO−): 70.0 per cents | viability of the cell culture Supt1 (MTT-test) ([1]; AZT 10^−5 M, day 5 after AZT addition, HBO+): 80.5 per cents | viability of the cell culture Supt1 (MTT-test) ([1]; AZT 10^−5 M, day 5 after AZT addition, HBO−): 71.9 per cents | viability of the cell culture Supt1 (MTT-test) ([1]; AZT 10^−6 M, day 2 after AZT addition, HBO+): 89.3 per cents | viability of the cell culture Supt1 (MTT-test) ([1]; AZT 10^−6 M, day 2 after AZT addition, HBO−): 52.7 per cents | viability of the cell culture Supt1 (MTT-test) ([1]; AZT 10^−6 M, day 3 after AZT addition, HBO+): 96.0 per cents | viability of the cell culture Supt1 (MTT-test) ([1]; AZT 10^−6 M, day 3 after AZT addition, HBO−): 80.2 per cents | viability of the cell culture Supt1 (MTT-test) ([1]; AZT 10^−6 M, day 5 after AZT addition, HBO+): 87.8 per cents | viability of the cell culture Supt1 (MTT-test) ([1]; AZT 10^−6 M, day 5 after AZT addition, HBO−): 73.0 per cents | viability of the cell culture Supt1 (MTT-test) ([1]; AZT 10^−7 M, day 2 after AZT addition, HBO+): 93.0 per cents | viability of the cell culture Supt1 (MTT-test) ([1]; AZT 10^−7 M, day 2 after AZT addition, HBO−): 53.8 per cents | viability of the cell culture Supt1 (MTT-test) ([1]; AZT 10^−7 M, day 3 after AZT addition, HBO+): 95.2 per cents | viability of the cell culture Supt1 (MTT-test) ([1]; AZT 10^−7 M, day 3 after AZT addition, HBO−): 114.1 per cents | viability of the cell culture Supt1 (MTT-test) ([1]; AZT 10^−7 M, day 5 after AZT addition, HBO+): 92.0 per cents | viability of the cell culture Supt1 (MTT-test) ([1]; AZT 10^−7 M, day 5 after AZT addition, HBO−): 79.2 per cents | viability of the cell culture Supt1 (MTT-test) ([1]; AZT 10^−8 M, day 2 after AZT addition, HBO+): 107.8 per cents | viability of the cell culture Supt1 (MTT-test) ([1]; AZT 10^−8 M, day 2 after AZT addition, HBO−): 100.6 per cents | viability of the cell culture Supt1 (MTT-test) ([1]; AZT 10^−8 M, day 3 after AZT addition, HBO+): 100.9 per cents | viability of the cell culture Supt1 (MTT-test) ([1]; AZT 10^−8 M, day 3 after AZT addition, HBO−): 118.3 per cents | viability of the cell culture Supt1 (MTT-test) ([1]; AZT 10^−8 M, day 5 after AZT addition, HBO+): 85.6 per cents | viability of the cell culture Supt1 (MTT-test) ([1]; AZT 10^−8 M, day 5 after AZT addition, HBO−): 85.9 per cents | viability of the cell culture Supt1 (MTT-test) ([1]; AZT 10^−9 M, day 2 after AZT addition, HBO+): 98.3 per cents | viability of the cell culture Supt1 (MTT-test) ([1]; AZT 10^−9 M, day 2 after AZT addition, HBO−): 95.2 per cents | viability of the cell culture Supt1 (MTT-test) ([1]; AZT 10^−9 M, day 3 after AZT addition, HBO+): 102.1 per cents | viability of the cell culture Supt1 (MTT-test) ([1]; AZT 10^−9 M, day 3 after AZT addition, HBO−): 98.6 per cents | viability of the cell culture Supt1 (MTT-test) ([1]; AZT 10^−9 M, day 5 after AZT addition, HBO+): 97.3 per cents | viability of the cell culture Supt1 (MTT-test) ([1]; AZT 10^−9 M, day 5 after AZT addition, HBO−): 80.1 per cents | Content of viral antigen in supernatant ([2]; AZT 10^−7 M, day 3 after infection, OX+): 8.8 | Content of viral antigen in supernatant ([2]; AZT 10^−7 M, day 3 after infection, OX−): 8.0 | Content of viral antigen in supernatant ([2]; AZT 10^−7 M, day 5 after infection, OX+): 9.9 | Content of viral antigen in supernatant ([2]; AZT 10^−7 M, day 5 after infection, OX−): 50.2 | Content of viral antigen in supernatant ([2]; AZT 10^−9 M, day 3 after infection, OX+): 7.4 | Content of viral antigen in supernatant ([2]; AZT 10^−9 M, day 3 after infection, OX−): 14.5 | Content of viral antigen in supernatant ([2]; AZT 10^−9 M, day 5 after infection, OX+): 21.5 | Content of viral antigen in supernatant ([2]; AZT 10^−9 M, day 5 after infection, OX−): 82.3 | Content of viral antigen in supernatant [2, 4]: 8.7 | Content of viral antigen in supernatant [2, 5]: 14.4 | Content of viral antigen in supernatant ([2]; AZT 10^−11 M, day 5 after infection, OX+): 62.0 | Content of viral antigen in supernatant ([2]; AZT 10^−11 M, day 5 after infection, OX−): 83.4 | Content of viral antigen in supernatant ([3]; AZT 10^−6 M, day 2 after infection, OX+): 20.5 | Content of viral antigen in supernatant ([3]; AZT 10^−6 M, day 2 after infection, OX−): 21.8 | Content of viral antigen in supernatant ([3]; AZT 10^−6 M, day 3 after infection, OX+): 33.3 | Content of viral antigen in supernatant ([3]; AZT 10^−6 M, day 3 after infection, OX−): 51.1 | Content of viral antigen in supernatant ([3]; AZT 10^−8 M, day 2 after infection, OX+): 29.3 | Content of viral antigen in supernatant ([3]; AZT 10^−8 M, day 2 after infection, OX−): 33.1 | Content of viral antigen in supernatant ([3]; AZT 10^−8 M, day 3 after infection, OX+): 51.8 | Content of viral antigen in supernatant ([3]; AZT 10^−8 M, day 3 after infection, OX−): 70.7 | Content of viral antigen in supernatant ([3]; AZT 10^−11 M, day 2 after infection, OX+): 29.6 | Content of viral antigen in supernatant ([3]; AZT 10^−11 M, day 2 after infection, OX−): 48.2 | Content of viral antigen in supernatant [3, 4]: 44.5 | Content of viral antigen in supernatant [3, 5]: 92.1
